One series deals with A375 cells. The series can be described thus: MTT cytotoxicity assay, A375. The settings on record: for cytotoxicity at 100 µM: Homo sapiens, A-375, 24 h, A375, 100 μΜ, read-out: Cell Toxicity A375 % (100 μΜ). The format is cell-based, human. On the procedure:
Furthermore, the coumarin compounds synthesized in this study were also evaluated for their cytotoxicity against A549 (adenocarcinomic human alveolar basal epithelial cells) and A375 (human melanoma) cell lines.
This protocol was used for the evaluation of cell viability and all the cell lines. It must be noted that this assay describes the count of cells that remain alive after the treatment. For the experimental procedure a standard solution of MTT 1mg/mL in PBS was prepared which after filtration ([…] filter (Millipore, Carrigtwohill, Ireland)) was stored in the dark (4–8 °C) until use. In a 96-well plate, HaCaT, A549 and A375 cells were seeded in a number of 30 × 10^4 cells/well for each evaluation series respectively. The cells were incubated (37 °C, 5% CO2) for 24 h, followed by the addition of the tested analogues (100 μM, diluted in DMEM) and another 24-h incubation. Next, appropriate amount of MTT was added in the tested wells and the plate returned to the incubator for the next 4 h for the formation of the formazan crystals. The formazan crystals were then redissolved by adding DMSO (100 μL) and stirring lightly for 40 min, after which the absorbance was measured in a plate reader at 540 nm with a reference absorbance of 720 nm.
All samples were tested in triplicate, against a control (only cells), blank (no cells), and positive control (100 μM standard silibinin solution was used as a “cell-killing” standard).

The target of a further series is T1, soybean LOX (Glycine max, UniProt P08170).
T1 construct: purchased Sigma-Aldrich and Fluka
T1 sequence (P08170 1-839): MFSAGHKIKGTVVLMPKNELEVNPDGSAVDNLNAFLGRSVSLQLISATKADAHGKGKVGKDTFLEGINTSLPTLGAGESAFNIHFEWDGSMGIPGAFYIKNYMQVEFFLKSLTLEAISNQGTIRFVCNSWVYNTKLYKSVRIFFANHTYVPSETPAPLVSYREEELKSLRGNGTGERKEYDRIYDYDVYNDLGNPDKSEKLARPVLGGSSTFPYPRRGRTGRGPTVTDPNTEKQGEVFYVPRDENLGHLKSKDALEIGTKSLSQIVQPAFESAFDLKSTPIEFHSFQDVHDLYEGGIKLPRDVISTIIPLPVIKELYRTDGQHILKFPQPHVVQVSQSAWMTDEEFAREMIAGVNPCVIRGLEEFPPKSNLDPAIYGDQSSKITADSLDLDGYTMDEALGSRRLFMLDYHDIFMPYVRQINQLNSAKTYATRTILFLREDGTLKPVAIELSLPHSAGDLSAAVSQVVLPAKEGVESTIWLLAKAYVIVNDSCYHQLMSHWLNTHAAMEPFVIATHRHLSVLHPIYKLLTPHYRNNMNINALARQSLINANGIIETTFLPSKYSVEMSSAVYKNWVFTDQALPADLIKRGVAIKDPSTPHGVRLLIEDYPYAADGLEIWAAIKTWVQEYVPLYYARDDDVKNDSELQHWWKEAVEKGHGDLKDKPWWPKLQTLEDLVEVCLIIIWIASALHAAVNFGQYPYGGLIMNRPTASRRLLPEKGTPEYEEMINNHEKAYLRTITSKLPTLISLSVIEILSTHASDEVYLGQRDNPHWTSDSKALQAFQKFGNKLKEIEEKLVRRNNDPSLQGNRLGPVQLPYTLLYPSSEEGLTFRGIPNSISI
The series can be described thus: Inhibition of soybean LOX. It counts as biochemical. The settings on record: for inhibition at 100 µM: read-out: Soybean LOX % inhibition (100 μΜ). The method, then: Soybean LOX is a plant enzyme which has been used widely as a prototype for studying the functional and structural properties of the homologous family of lipoxygenases, presenting satisfactory homology with the human 5-LOX [14]. Linoleic acid (LA) is a standard substrate for plant LOXs. In this protocol, all new molecules were tested as inhibitors of soybean LOX as an indication of their anti-inflammatory activity (Table 3).
For the reference sample in a UV cuvette 10 μL of the test sample (100 μM diluted in DMSO), 200 μL LOX solution (diluted in NaCl 0.9%), 100 μL LA (diluted in Tris buffer) and Tris buffer solution (pH 9) were added to a final volume of 1 mL. Respectively for the measurement sample, also in a UV cuvette 10 μL of test sample, 200 μL LOX solution, and Tris buffer solution (pH 9) were added to a final volume of 1mL. Standard and blank samples were prepared in the same way using DMSO (solvent) instead of the tested coumarin analogues.

The target in series [1] is T2, human serum albumin (HSA) (Homo sapiens, UniProt P02768).
T2 construct: purchased CHIRAL PAK
The experiment in a line: HSA chromatography and estimated plasma protein binding. The format is in vitro ADME. Conditions: for fraction unbound: human, immobilized human serum albumin (HSA) column, Equation (2) from logk10, pH 7.00, read-out: %PPB estimated plasma protein binding (converted); for logk10 (HSA retention factor): pH 7.00, 10% acetonitrile. On the procedure:
The novel coumarin derivatives were also studied using the immobilized protein column HSA. An HSA chromatographic column provides estimates on the binding affinities of chemicals to human serum albumin, which is the most abundant plasma protein and is related to drug efficacy, drug—drug pharmacokinetic interactions, and drug safety. HSA binding can be considered to represent almost the total plasma protein binding of a drug.
Retention factors on the HSA stationary phase were measured using as eluent PBS at pH = 7.00 and a flow rate of 1 mL/min in the presence of 10% acetonitrile.
(2) % PPB=101∗10^logk10/1+10^logk10
The physicochemical and biomimetic properties of the new coumarin analogues were studied using liquid chromatography (HPLC) in 220–230 nm Two types of chromatographic columns were used: (i) immobilized artificial membrane (IAM) ([…].PC.DD.2, Regis Technologies) column and (ii) human serum albumin (HSA) (CHIRAL PAK) column.
The training set consisted of 25 neutral and slightly acidic compounds. Their IAM retention factors were measured at pH 7.40 on a IAM.PC.DD.2 column. The mobile phase consisted of acetonitrile solvent (CH3CN) in various concentrations (10%, 15%, 20%, 25%, 30%) and a flow rate of 3 mL/min was selected. Their HSA retention factors were measured at pH 7.00 on HSA column. The mobile phase consisted of acetonitrile solvent (CH3CN) in 10% concentration and a flow rate of 1 mL/min was selected.
The different pH values (7.00 for HSA and 7.40 for IAM) were measured with an electronic pH meter MP125 and were achieved by preparing suitable buffers of phosphates and chlorides (0.12 g KH2PO4, 0.72 g Na2HPO4·2H2O, 4.00 g NaCl and 0.10 g KCl). Sodium citrate solution was used to determine the dead time, which was deducted from the results at the end of measurements. The elution time of each coumarin analogue was measured at least three times. Retention times were converted into logk values, which represent the logarithm of the retention indexes, using Equation (8). (8) logk=log(tr−t0/t0) where tr is the retention time of the coumarin derivative and t0 is the dead time.

Molecules are shown by their SMILES.

These results are taken from article PMC8512853, “Synthesis, Bioactivity, Pharmacokinetic and Biomimetic Properties of Multi-Substituted Coumarin Derivatives” (Molecules, 2021).

T2 sequence (P02768 25-609): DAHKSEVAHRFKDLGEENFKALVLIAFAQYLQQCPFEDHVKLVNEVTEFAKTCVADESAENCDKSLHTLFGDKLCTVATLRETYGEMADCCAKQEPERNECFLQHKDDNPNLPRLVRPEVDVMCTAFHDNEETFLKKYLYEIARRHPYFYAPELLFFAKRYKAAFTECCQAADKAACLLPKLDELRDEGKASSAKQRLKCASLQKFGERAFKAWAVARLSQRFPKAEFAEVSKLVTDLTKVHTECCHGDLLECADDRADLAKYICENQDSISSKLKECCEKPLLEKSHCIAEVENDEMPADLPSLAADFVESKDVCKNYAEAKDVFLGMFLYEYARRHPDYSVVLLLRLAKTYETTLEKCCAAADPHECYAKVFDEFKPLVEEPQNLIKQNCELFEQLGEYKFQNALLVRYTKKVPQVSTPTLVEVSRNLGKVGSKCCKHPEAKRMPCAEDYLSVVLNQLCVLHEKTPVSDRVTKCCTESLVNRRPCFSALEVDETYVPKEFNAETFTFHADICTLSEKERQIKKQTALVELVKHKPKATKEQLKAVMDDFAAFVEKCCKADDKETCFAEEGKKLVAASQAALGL

For `CC(=O)Oc1cccc2oc(=O)c(-c3ccccc3Cl)c(C)c12` [Compound 3a, 5-acetyloxy-3-(2-chlorophenyl)-4-methyl-chromen-2-one], the cytotoxicity at 100 µM in the series on A375 cells stood at 38.7%. Besides, on soybean LOX, the “Soybean LOX % inhibition (100 μΜ)” value is “inactive” and the inhibition at 100 µM stood at 17%. Besides, in series [1], the fraction unbound is 0.202 and the “logk10 (HSA retention factor)” value was 0.57.

Take `CC(=O)Oc1cccc2oc(=O)c(-c3cccc(Cl)c3)c(C)c12` [Compound 3b, 5-acetyloxy-3-(3-chlorophenyl)-4-methyl-chromen-2-one]: the cytotoxicity at 100 µM in the series on A375 cells was over 60%. Also, half-maximal inhibition on soybean LOX (IC50) was put at 31.6 µM. In addition, in series [1], the fraction unbound was 0.128 and the “logk10 (HSA retention factor)” value is reported as 0.80.

For the molecule `CC(=O)Oc1cccc2oc(=O)c(-c3ccc(Cl)cc3)c(C)c12` [Compound 3c, 5-acetyloxy-3-(4-chlorophenyl)-4-methyl-chromen-2-one], in the series with A375 cells, the cytotoxicity at 100 µM worked out at 24.8%. In addition, the “Soybean LOX % inhibition (100 μΜ)” value on soybean LOX was “no”. Besides, in series [1], the fraction unbound is 0.091 and the “logk10 (HSA retention factor)” value is 0.96.

Turning to `CC(=O)Oc1cccc2oc(=O)c(-c3ccccc3F)c(C)c12` [Compound 3d, 5-acetyloxy-3-(2-fluorophenyl)-4-methyl-chromen-2-one], the cytotoxicity at 100 µM in the series on A375 cells is 28.5%. Also, at soybean LOX, the “Soybean LOX % inhibition (100 μΜ)” value was “inactive” and the inhibition at 100 µM stood at 11.6%. For the same molecule, in series [1], the fraction unbound is 0.149 and the “logk10 (HSA retention factor)” value was 0.73.

Turning to `CC(=O)Oc1cccc2oc(=O)c(-c3cccc(F)c3)c(C)c12` [Compound 3e, 5-acetyloxy-3-(3-fluorophenyl)-4-methyl-chromen-2-one], in the series with A375 cells, the cytotoxicity at 100 µM was over 60%. Besides, at soybean LOX, the IC50 was 11.4 µM. In series [1], the fraction unbound is 0.149 and the “logk10 (HSA retention factor)” value was 0.73.

As for `CC(=O)Oc1cccc2oc(=O)c(-c3ccc(F)cc3)c(C)c12` [Compound 3f, 5-acetyloxy-3-(4-fluorophenyl)-4-methyl-chromen-2-one], in the series with A375 cells, the cytotoxicity at 100 µM was 35.8%. In addition, at soybean LOX, the “Soybean LOX % inhibition (100 μΜ)” value was “inactive” and the inhibition at 100 µM came out at 20.1%. In series [1], the fraction unbound is 0.206 and the “logk10 (HSA retention factor)” value was 0.57.

Consider `CC(=O)Oc1cccc2oc(=O)c(-c3cccc(Br)c3)c(C)c12` [Compound 3g, 5-acetyloxy-3-(3-bromophenyl)-4-methyl-chromen-2-one], for which the cytotoxicity at 100 µM with A375 cells amounted to 7.02%. In addition, the IC50 at soybean LOX came out at 40.5 µM. In addition, in series [1], the fraction unbound is 0.12 and the “logk10 (HSA retention factor)” value is on record as 0.83.

Take `CC(=O)Oc1ccc(-c2c(C)c3ccccc3oc2=O)cc1` [Compound 3h, 3-(4-acetyloxyphenyl)-4-methyl-chromen-2-one]: the cytotoxicity at 100 µM in the series on A375 cells was 43.2%. In addition, the inhibition at 100 µM at soybean LOX is 33.8%. Also, in series [1], the fraction unbound was 0.145 and the “logk10 (HSA retention factor)” value is recorded as 0.74.

For `CC(=O)Oc1ccc(-c2c(C)c3cc(Br)ccc3oc2=O)cc1` [Compound 3i, 3-(4-acetyloxyphenyl)-6-bromo-4-methyl-chromen-2-one], in the series on A375 cells, the cytotoxicity at 100 µM is 50 to 60%. Further, the inhibition at 100 µM at soybean LOX was determined as 46.5%. In addition, in series [1], the fraction unbound was 0.059 and the “logk10 (HSA retention factor)” value was 1.14.

`CC(=O)Oc1ccc(-c2c(C)c3cc(Cl)ccc3oc2=O)cc1` [Compound 3j, 3-(4-acetyloxyphenyl)-6-chloro-4-methyl-chromen-2-one]: the cytotoxicity at 100 µM with A375 cells was in the range of 50 to 60%. The molecule further displayed an IC50 against soybean LOX of 49.5 µM. In addition, in series [1], the fraction unbound is 0.088 and the “logk10 (HSA retention factor)” value is 0.97.

As for `CC(=O)Oc1ccc(-c2c(C)c3cc(Br)cc(Br)c3oc2=O)cc1` [Compound 3k, 3-(4-acetyloxyphenyl)-6,8-dibromo-4-methyl-chromen-2-one], the cytotoxicity at 100 µM in the series with A375 cells came out at 28.8%. This molecule also gave an IC50 against soybean LOX of 8.7 µM. In series [1], the fraction unbound is 0.013 and the “logk10 (HSA retention factor)” value is given as 1.63.

For the molecule `CC(=O)Oc1ccc(-c2c(C)c3ccccc3oc2=O)cc1OC(C)=O` [Compound 3l, 3-(4,5-diacetyloxyphenyl)-4-methyl-chromen-2-one], the cytotoxicity at 100 µM in the series on A375 cells is 40.4%. Besides, the inhibition at 100 µM on soybean LOX came out at 31.4%. Besides, in series [1], the fraction unbound was 0.401 and the “logk10 (HSA retention factor)” value was 0.16.

As to `CC(=O)Oc1ccc(-c2c(C)c3cc(Br)ccc3oc2=O)cc1OC(C)=O` [Compound 3m, 3-(4,5-diacetyloxyphenyl)-6-bromo-4-methyl-chromen-2-one], in the series with A375 cells, the cytotoxicity at 100 µM was determined as 33.3%. Moreover, the inhibition at 100 µM on soybean LOX was 48%. In series [1], the fraction unbound is 0.105 and the “logk10 (HSA retention factor)” value was 0.89.

For the molecule `CC(=O)Oc1ccc(-c2c(C)c3cc(Cl)ccc3oc2=O)cc1OC(C)=O` [Compound 3n, 3-(4,5-diacetyloxyphenyl)-6-chloro-4-methyl-chromen-2-one], the cytotoxicity at 100 µM in the series on A375 cells is 11.5%. In addition, the IC50 against soybean LOX came out at 56.5 µM. Further, in series [1], the fraction unbound was 0.145 and the “logk10 (HSA retention factor)” value is 0.74.

On to `Cc1c(-c2ccc(O)cc2)c(=O)oc2c(Br)cc(Br)cc12` [Compound 4k, 6,8-dibromo-3-(4-hydroxyphenyl)-4-methyl-chromen-2-one], for which the “Cell Toxicity A375 % (100 μΜ)” value in the series on A375 cells (24 h) is given as “no”. For the same molecule, on soybean LOX, the “Soybean LOX % inhibition (100 μΜ)” value was “inactive” and the inhibition at 100 µM was 33.4%.
